# Laboratory results published in patent publication US20260224547A1, “COMPOSITIONS COMPRISING ANATABINE AND USES THEREOF” (Philip Morris Products S.A., priority 2021, published 2026).
# Test system: NRF2
# Experiment: NRF2 luciferase assay (NRF2/ARE reporter cell line)
# Format: cell-based, human
# Excerpt: A HEK-293 NRF2/ARE luciferase reporter cell line was acquired from Signosis (USA). According to Signosis, this NRF2 luciferase reporter stable cell line had been stably transfected with pTA-ARE-luciferase reporter vector, which contains 4 repeats of antioxidant response binding sites, a minimal promoter upstream of the firefly luciferase coding region, along with a hygromycin expression vector. Following selection, the hygromycin resistant clones were subsequently screened for TBHQ-induced luciferase activity. The clone with the highest fold induction was selected and expanded to produce this stable cell line.
# 4, 8 or 24 hours after stimulation of the NRF2 reporter cells luminescence was measured using a FLUOstar Omega plate reader.
compound,measurement,setting,value
"C1=CCC(c2cccnc2)NC1 (racemic) [anatabine, 1,2,3,6-Tetrahydro-2,3′-bipyridine]",maximum log 2-fold change of NRF2 activation,"at 12.5 μM for sulforaphane, 125 μM and 250 μM for DMF, 1000 μM for anatabine",over 7
same,NRF2 luciferase reporter signal,concentration series,concentration-dependent rise
